pIC50: −log10 of the molar value.
molecular target: T1, human EGF-R (Homo sapiens, UniProt P00533); assay: Inhibition of EGFR-dependent proliferation (EGF-stimulated murine haematopoietic cell line expressing human EGF-R, Cell Titer 96 AQueous assay); type: cell-based; settings: 20 ng/ml human EGF, 48 hours at 37° C.
T1 construct: expressed in transfected cells
Procedure: A murine haematopoietic cell line is genetically modified so as to express functional human EGF-R. The proliferation of this cell line can therefore be stimulated by EGF.
The test is carried out as follows:
The cells are cultivated in RPMI/1640 medium. The proliferation is stimulated with 20 ng/ml of human EGF (Promega). To investigate the inhibitory activity of the compounds according to the invention these compounds are dissolved in 100% dimethylsulphoxide (DMSO) and added to the cultures in various dilutions, the maximum DMSO concentration being 1%. The cultures are incubated for 48 hours at 37° C.
In order to determine the inhibitory activity of the compounds according to the invention the relative cell number is measured in O.D. units using the Cell Titer 96™ AQueous Non-Radioactive Cell Proliferation Assay (Promega). The relative cell number is calculated as a percentage of the control and the concentration of active substance which inhibits the proliferation of the cells by 50% (IC50) is derived therefrom.

T1 sequence (P00533 25-1210): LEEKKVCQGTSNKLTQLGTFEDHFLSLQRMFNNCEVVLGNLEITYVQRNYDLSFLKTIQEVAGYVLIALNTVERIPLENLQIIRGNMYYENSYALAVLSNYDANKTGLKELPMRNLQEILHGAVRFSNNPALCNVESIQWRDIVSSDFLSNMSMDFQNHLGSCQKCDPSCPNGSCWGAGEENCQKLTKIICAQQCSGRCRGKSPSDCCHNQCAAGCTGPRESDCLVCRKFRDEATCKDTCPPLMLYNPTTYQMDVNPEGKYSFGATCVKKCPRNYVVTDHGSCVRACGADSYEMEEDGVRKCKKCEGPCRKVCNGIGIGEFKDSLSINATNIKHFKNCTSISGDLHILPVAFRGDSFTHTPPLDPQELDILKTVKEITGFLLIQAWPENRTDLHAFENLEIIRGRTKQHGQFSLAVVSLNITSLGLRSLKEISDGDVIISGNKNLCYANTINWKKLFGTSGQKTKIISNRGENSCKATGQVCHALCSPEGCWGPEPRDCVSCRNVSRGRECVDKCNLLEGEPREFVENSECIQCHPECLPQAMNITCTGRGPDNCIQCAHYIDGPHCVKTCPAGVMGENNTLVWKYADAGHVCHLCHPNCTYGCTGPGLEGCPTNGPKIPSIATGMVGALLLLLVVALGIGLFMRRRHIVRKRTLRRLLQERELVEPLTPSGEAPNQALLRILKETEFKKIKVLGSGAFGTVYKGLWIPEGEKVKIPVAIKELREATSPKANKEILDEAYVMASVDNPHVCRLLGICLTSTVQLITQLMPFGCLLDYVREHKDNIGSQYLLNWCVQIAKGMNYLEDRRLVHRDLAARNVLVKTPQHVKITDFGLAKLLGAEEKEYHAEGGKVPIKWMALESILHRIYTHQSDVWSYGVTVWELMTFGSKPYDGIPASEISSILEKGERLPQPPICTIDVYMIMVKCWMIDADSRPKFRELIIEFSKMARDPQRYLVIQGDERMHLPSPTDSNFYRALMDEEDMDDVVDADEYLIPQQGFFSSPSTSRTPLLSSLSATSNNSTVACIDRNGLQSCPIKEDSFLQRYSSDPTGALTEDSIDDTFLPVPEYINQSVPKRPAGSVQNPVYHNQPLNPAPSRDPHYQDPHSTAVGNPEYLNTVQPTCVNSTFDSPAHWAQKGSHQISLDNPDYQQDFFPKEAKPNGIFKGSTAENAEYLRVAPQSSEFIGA

Structure (SMILES) | pIC50
COc1cc2ncnc(Nc3cccc(Cl)c3F)c2cc1O[C@H]1CC[C@@H](N2CCN(C3CCOCC3)C(=O)C2)CC1 [1(3), cis] | 8.03
CCCCN1CCN([C@H]2CC[C@@H](Oc3cc4c(Nc5cccc(Cl)c5F)ncnc4cc3OC)CC2)CC1=O [1(2), cis] | 7.92
CCCCN1CCN([C@H]2CC[C@H](Oc3cc4c(Nc5cccc(Cl)c5F)ncnc4cc3OC)CC2)CC1=O [1(2), trans] | 8.51
COc1cc2ncnc(Nc3cccc(Cl)c3F)c2cc1O[C@H]1CC[C@H](N2CCN(CC3CC3)C(=O)C2)CC1 [1(1), trans] | 8.77
CCN1CCN([C@H]2CC[C@@H](Oc3cc4c(Nc5cccc(Cl)c5F)ncnc4cc3OC)CC2)CC1=O [1, cis] | 8.15
COc1cc2ncnc(Nc3cccc(Cl)c3F)c2cc1O[C@H]1CC[C@@H](N2CCN(CC3CC3)C(=O)C2)CC1 [1(1), cis] | 8.00

Now those with a higher pIC50, led by results:

pIC50 | Structure (SMILES)
8.80 | COc1cc2ncnc(Nc3cccc(Cl)c3F)c2cc1O[C@H]1CC[C@H](N2CCN(C3CCOCC3)C(=O)C2)CC1 [1(3), trans]
8.89 | CCN1CCN([C@H]2CC[C@H](Oc3cc4c(Nc5cccc(Cl)c5F)ncnc4cc3OC)CC2)CC1=O [1, trans]
